Values quoted from earlier work in patent US20050239746A1, “Pharmaceutical composition” (priority 2002, published 2005).

Experiments:
[1] = intravenous infusion, 3 g single dose, 8 healthy volunteers
[2] = test system: isolated guinea pig trachea; settings: 0.1M aqueous solution in 40% w/v 2-hydroxypropyl-beta-cyclodextrin

Row | Molecule | safety and tolerability [1] | muscle relaxant activity compared with the lipid emulsion [2]
1 | 2-hydroxypropyl-beta-cyclodextrin [Encapsin-HPB] | safe and well tolerated | 
2 | CC(C)c1cccc(C(C)C)c1O [Propofol, 2,6 di-isopropylphenol] |  | three times higher
